Assay results as given in patent publication US9593149B2, “Amylin and calcitonin receptor agonist” (Novo Nordisk A/S, priority 2014, dated 2017).
Numbered stars: 1 amine (or outer) side, 2 acyl side, 3 side chain; on linkers, the order of the positions; unused ones are H or OH. Peptide text beside a SMILES is read from it. * marks the point of attachment. C20 diacid = O=C(O)CCCCCCCCCCCCCCCCCCC(=O)*; C18 diacid = O=C(O)CCCCCCCCCCCCCCCCC(=O)*; γGlu = O=C(O)[C@H](CCC(=O)[*:2])N[*:1]; C12 diacid = O=C(O)CCCCCCCCCCC(=O)*

Columns and labels:
[1] = Assay (IX) pK, T½ in mini-pig; type: in vivo, Göttingen mini-pigs; details: i.v.
Protocol: Assay (IX)—pK—Determination of T½ in Mini-Pig
Pharmacokinetic (PK) studies in Göttingen mini-pigs were conducted in order to determine the T½ of the mimylin compound according to the Examples as indicated after i.v. administration.
T½ values of the amylin analogues of the invention is determined by pharmacokinetic studies in female Göttingen mini-pigs from Ellegaard Göttingen Minipigs ApS and the principles of laboratory animal care are followed.
An acclimatisation period of approximately 6-10 days was allowed before the animals entered the study. At start of the acclimatisation period the mini-pigs were about 5 to 12 months old and in the weight range of 15-35 kg. The mini-pigs had two central venous catheters inserted which were used for blood sampling.
The studies were conducted in an animal room which was illuminated to give a cycle of approximately 12 hours light and 12 hours darkness. The animals were housed individually. The animals had free access to domestic quality drinking water during the study, and no food restrictions applied for PK studies. The animals were weighed on arrival and on the days of dosing.
In the present studies the test substances were administered intravenously in approximately 5 nmol/kg dose. The animals received a single intravenous injection in one central venous catheter and blood sampling was performed from the other catheter, where possible. Each test substance was given to typically three but in some cases two or four animals.
A full plasma concentration-time profile, employing 12-16 sampling points, was obtained from each animal. In example blood samples were collected according to the following schedule:
After Intravenous Administration:
Pre-dose (0), 0.5, 1, 2, 4, 6, 8, 12, 24, 48, 72, 96, 120, 168 and 240 hours after injection. In some cases also additional blood samples up to 288 hours post injection were taken.
At each sampling time, 0.5 to 2 ml of blood was drawn from each animal. The blood samples were taken via the central venous catheter.
The 0.8 mL blood samples were collected into EDTA test tubes (8 mM EDTA). Blood samples were kept on ice for max 20 min. before centrifugation. Plasma was separated using centrifugation (i.e. at 4° C., 10 min., 2000G) and was immediately transferred to Micronic tubes on dry ice. Approximately 200 μl plasma was transferred to each Micronic tube. The plasma was stored at −20° C. until assayed. The plasma samples were assayed for the content of compound using LCMS.
The plasma concentration-time profiles were analysed by a non-compartmental pharmacokinetic analysis (NCA) using Phoenix WinNonlin 6.3 (Pharsight Inc., Mountain View, Calif., USA). NCA was performed using the individual plasma concentration-time profiles from each animal. T½ is the terminal half-life=In2/λz and was determined from λz, the first order rate constant associated with the terminal (log-linear) portion of the curve, estimated by linear regression of time vs. log concentration.
MS-Method for Amylin and Mimylin Quantification
40 μl plasma is diluted with 120 μl 66.67% EtOH+1% HCOOH and mixed. Centrifuged for 20 min. at 13000 rpm, 4° C. The supernatant is analyzed by an LC-MS method on a Sciex API 3000 and quantitated with a standard made up in plasma

[2] = Assay (IV) determination of solubility; type: physicochemical
Protocol: Assay (IV)—Determination of Solubility
The mimylin peptide was dissolved in water at ˜500 nmol/ml and mixed 1:1 with a series of buffers (100 mM glycylglycine pH 3.0, 100 mM glycylglycine pH 4.0, 100 mM glycylglycine pH 5.0, 100 mM bistrispropane pH 6.0, 100 mM bistrispropane pH 6.5, 100 mM bistrispropane pH 7.0, 100 mM bistrispropane pH 7.5, 100 mM bistrispropane pH 8.0).

PK mini pig iv T½ [1] [h]	Solubility ([2]; pH 3.0)	Solubility ([2]; pH 4.0)	Solubility ([2]; pH 5.0)	Solubility ([2]; pH 6.0)	Solubility ([2]; pH 6.5)	Solubility ([2]; pH 7.0)	Solubility ([2]; pH 7.5)	Solubility ([2]; pH 8.0)	solubility at 18 h ([2]; bistrispropane buffer, pH 6.5) [µM]	Compound
1	≧200 μM	≧200 μM	≧200 μM	≧200 μM	–	≧200 μM	≧200 μM	≧200 μM	≥ 200	CC(C)C[C@H](NC(=O)[C@H](C)NC(=O)[C@H](C)NC(=O)[C@@H](NC(=O)[C@H](CO)NC(=O)[C@H](CC(C)C)NC(=O)[C@H](CCC(=O)O)NC(=O)[C@H](CO)NC(=O)[C@H](C)NC(=O)[C@H](CCC(=O)O)NC(=O)CCCCCCCCCCC(=O)O)[C@@H](C)O)C(=O)NCC(=O)N[C@@H](CCCNC(=N)N)C(=O)N[C@@H](CC(C)C)C(=O)N[C@@H](CO)C(=O)N[C@@H](C)C(=O)N[C@@H](CCC(=O)O)C(=O)N[C@@H](CC(C)C)C(=O)N[C@@H](Cc1cnc[nH]1)C(=O)N[C@@H](CCC(=O)O)C(=O)N[C@@H](CC(C)C)C(=O)N[C@@H](C)C(=O)N[C@H](C(=O)N[C@@H](CC(C)C)C(=O)N1CCC[C@H]1C(=O)N[C@@H](CCCNC(=N)N)C(=O)N[C@H](C(=O)N[C@@H](CCC(=O)O)C(=O)N[C@H](C(=O)NCC(=O)N1CCC[C@H]1C(=O)N[C@@H](CCC(=O)O)C(=O)N[C@@H](CO)C(=O)N1CCC[C@H]1C(N)=O)[C@@H](C)O)[C@@H](C)O)[C@@H](C)O [compound 6, [N-terminal(C12 diacid)]mimylin] ({C12 diacid}-EASELSTAALGRLSAELHELATLPRTETGPESP-NH2)
90	≧200 μM	≧200 μM	≧200 μM	≧200 μM	≧200 μM	≧200 μM	≧200 μM	≧200 μM	–	CC(C)C[C@H](NC(=O)[C@H](CCC(=O)O)NC(=O)[C@H](Cc1cnc[nH]1)NC(=O)[C@H](CC(C)C)NC(=O)[C@H](CCC(=O)O)NC(=O)[C@H](C)NC(=O)[C@H](CO)NC(=O)[C@H](CC(C)C)NC(=O)[C@H](CCCNC(=N)N)NC(=O)CNC(=O)[C@H](CC(C)C)NC(=O)[C@@H](NC(=O)[C@H](C)NC(=O)[C@@H](NC(=O)[C@H](CO)NC(=O)[C@H](CC(C)C)NC(=O)[C@H](CCC(=O)O)NC(=O)[C@H](CO)NC(=O)[C@H](C)NC(=O)[C@H](CCC(=O)O)NC(=O)CCCCCCCCCCCCCCCCC(=O)O)[C@@H](C)O)C(C)C)C(=O)N[C@@H](C)C(=O)N[C@H](C(=O)N[C@@H](CC(C)C)C(=O)N1CCC[C@H]1C(=O)N[C@@H](CCCNC(=N)N)C(=O)N[C@H](C(=O)N[C@@H](CCC(=O)O)C(=O)N[C@H](C(=O)NCC(=O)N1CCC[C@H]1C(=O)N[C@@H](CCC(=O)O)C(=O)N[C@@H](CO)C(=O)N1CCC[C@H]1C(N)=O)[C@@H](C)O)[C@@H](C)O)[C@@H](C)O [compound 9, [N-terminal(C18 diacid), 9V]mimylin] ({C18 diacid}-EASELSTAVLGRLSAELHELATLPRTETGPESP-NH2)

Second part, the molecule before the results:

Compound	PK mini pig iv T½ [1] [h]	Solubility ([2]; pH 3.0)	Solubility ([2]; pH 4.0)	Solubility ([2]; pH 5.0)	Solubility ([2]; pH 6.0)	Solubility ([2]; pH 6.5)	Solubility ([2]; pH 7.0)	Solubility ([2]; pH 7.5)	Solubility ([2]; pH 8.0)	solubility at 18 h ([2]; bistrispropane buffer, pH 6.5) [µM]
CC(C)C[C@H](NC(=O)[C@H](C)NC(=O)[C@H](C)NC(=O)[C@@H](NC(=O)[C@H](CO)NC(=O)[C@H](CC(C)C)NC(=O)[C@H](CCC(=O)O)NC(=O)[C@H](CO)NC(=O)[C@H](C)NC(=O)CC[C@H](NC(=O)CCCCCCCCCCCCCCCCCCC(=O)O)C(=O)O)[C@@H](C)O)C(=O)NCC(=O)N[C@@H](CCCNC(=N)N)C(=O)N[C@@H](CC(C)C)C(=O)N[C@@H](CO)C(=O)N[C@@H](C)C(=O)N[C@@H](CCC(=O)O)C(=O)N[C@@H](CC(C)C)C(=O)N[C@@H](Cc1cnc[nH]1)C(=O)N[C@@H](CCC(=O)O)C(=O)N[C@@H](CC(C)C)C(=O)N[C@@H](C)C(=O)N[C@H](C(=O)N[C@@H](CC(C)C)C(=O)N1CCC[C@H]1C(=O)N[C@@H](CCCNC(=N)N)C(=O)N[C@H](C(=O)N[C@@H](CCC(=O)O)C(=O)N[C@H](C(=O)NCC(=O)N[C@@H](CO)C(=O)NCC(=O)N[C@@H](CO)C(=O)N1CCC[C@H]1C(N)=O)[C@@H](C)O)[C@@H](C)O)[C@@H](C)O [Ex. #40, [N-terminal(C20 diacid-gGlu), des1, 30S, 31G]mimylin] ({C20 diacid-γGlu}-ASELSTAALGRLSAELHELATLPRTETGSGSP-NH2)	171	≧200 μM	≧200 μM	≧200 μM	≧200 μM	≧200 μM	≧200 μM	≧200 μM	≧200 μM	–
CC(C)C[C@H](NC(=O)[C@H](C)NC(=O)[C@H](C)NC(=O)[C@@H](NC(=O)[C@H](CO)NC(=O)[C@H](CC(C)C)NC(=O)[C@H](CCC(=O)O)NC(=O)[C@H](CO)NC(=O)[C@H](C)NC(=O)[C@H](CCC(=O)O)NC(=O)CCCCCCCCCCCCCCCCC(=O)O)[C@@H](C)O)C(=O)NCC(=O)N[C@@H](CCCNC(=N)N)C(=O)N[C@@H](CC(C)C)C(=O)N[C@@H](CO)C(=O)N[C@@H](C)C(=O)N[C@@H](CCC(=O)O)C(=O)N[C@@H](CC(C)C)C(=O)N[C@@H](C)C(=O)N[C@@H](CCC(=O)O)C(=O)N[C@@H](CC(C)C)C(=O)N[C@@H](C)C(=O)N[C@H](C(=O)N[C@@H](CC(C)C)C(=O)N1CCC[C@H]1C(=O)N[C@@H](CCCNC(=N)N)C(=O)N[C@H](C(=O)N[C@@H](CCC(=O)O)C(=O)N[C@H](C(=O)NCC(=O)N1CCC[C@H]1C(=O)N[C@@H](CCC(=O)O)C(=O)N[C@@H](CO)C(=O)N1CCC[C@H]1C(N)=O)[C@@H](C)O)[C@@H](C)O)[C@@H](C)O [compound 13, [N-terminal(C18 diacid), 18A]mimylin] ({C18 diacid}-EASELSTAALGRLSAELAELATLPRTETGPESP-NH2)	86	≧200 μM	≧200 μM	≧200 μM	≧200 μM	≧200 μM	≧200 μM	≧200 μM	≧200 μM	–
CC(C)C[C@H](NC(=O)[C@H](C)NC(=O)[C@H](C)NC(=O)[C@@H](NC(=O)[C@H](CO)NC(=O)[C@H](CC(C)C)NC(=O)[C@H](CCC(=O)O)NC(=O)[C@H](CO)NC(=O)[C@H](C)NC(=O)[C@H](CCC(=O)O)NC(=O)CCCCCCCCCCCCCCCCC(=O)O)[C@@H](C)O)C(=O)NCC(=O)N[C@@H](CCCNC(=N)N)C(=O)N[C@@H](CC(C)C)C(=O)N[C@@H](CO)C(=O)N[C@@H](C)C(=O)N[C@@H](CCC(=O)O)C(=O)N[C@@H](CC(C)C)C(=O)N[C@@H](Cc1cnc[nH]1)C(=O)N[C@@H](CCC(=O)O)C(=O)N[C@@H](CC(C)C)C(=O)N[C@@H](C)C(=O)N[C@H](C(=O)N[C@@H](CC(C)C)C(=O)N1CCC[C@H]1C(=O)N[C@@H](CCCNC(=N)N)C(=O)N[C@H](C(=O)N[C@@H](CCC(=O)O)C(=O)N[C@H](C(=O)NCC(=O)N[C@@H](CO)C(=O)NCC(=O)N[C@@H](CO)C(=O)N1CCC[C@H]1C(N)=O)[C@@H](C)O)[C@@H](C)O)[C@@H](C)O [compound 21, [N-terminal(C18 diacid), 30S, 31G]mimylin] ({C18 diacid}-EASELSTAALGRLSAELHELATLPRTETGSGSP-NH2)	118	≧200 μM	≧200 μM	≧200 μM	≧200 μM	≧200 μM	≧200 μM	≧200 μM	≧200 μM	–
